Measurements published in ChEMBL document CHEMBL1201862, “PubChem BioAssay data set” (2004).
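Five concentrations, 48 hours, 96-well plates. GI50 is the concentration that inhibits growth by half.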 Calls of active or inactive are those of the source. No stated cut-off is given here; in the data, active = GI50 up to about 1.1 µM and inactive = higher.

Columns and labels:
Assay in all cases: NCI-60 cell line screen, 48 h
RXF 393 = test system: RXF 393
MDA-N = test system: MDA-N
786-0 = test system: 786-0
MOLT-4 = test system: MOLT-4
Malme-3M = test system: Malme-3M
SK-MEL-2 = test system: SK-MEL-2
SF-268 = test system: SF-268
TK-10 = test system: TK-10
HCC 2998 = test system: HCC 2998
K562 = test system: K562
U-251 = test system: U-251
SW-620 = test system: SW-620
IGROV-1 = test system: IGROV-1
OVCAR-3 = test system: OVCAR-3
SF-295 = test system: SF-295
NCI/ADR-RES = test system: NCI/ADR-RES
SK-OV-3 = test system: SK-OV-3
UO-31 = test system: UO-31
SR = test system: SR
HOP-92 = test system: HOP-92
SNB-19 = test system: SNB-19
SK-MEL-5 = test system: SK-MEL-5
BT-549 = test system: BT-549
RPMI-8226 = test system: RPMI-8226
LOX IMVI = test system: LOX IMVI
NCI-H23 = test system: NCI-H23
CCRF-CEM = test system: CCRF-CEM
PC-3 = test system: PC-3
Hs-578T = test system: Hs-578T
HCT-116 = test system: HCT-116
SN12C = test system: SN12C
UACC-62 = test system: UACC-62
OVCAR-4 = test system: OVCAR-4
A549 = test system: A549
CAKI-1 = test system: CAKI-1
MCF7 = test system: MCF7
HCT-15 = test system: HCT-15
OVCAR-5 = test system: OVCAR-5
COLO 205 = test system: COLO 205
UACC-257 = test system: UACC-257
M14 = test system: M14
HOP-62 = test system: HOP-62
NCI-H460 = test system: NCI-H460
ACHN = test system: ACHN
HT-29 = test system: HT-29
SNB-75 = test system: SNB-75
DU-145 = test system: DU-145
HL-60 = test system: HL-60
MDA-MB-435 = test system: MDA-MB-435
SF-539 = test system: SF-539
KM12 = test system: KM12
SK-MEL-28 = test system: SK-MEL-28
NCI-H522 = test system: NCI-H522
MDA-MB-231 = test system: MDA-MB-231
EKVX = test system: EKVX
NCI-H226 = test system: NCI-H226
T47D = test system: T47D
OVCAR-8 = test system: OVCAR-8

Measured: GI50

COc1ccc(-c2c3c(n(C4OC(COC(C)=O)C(OC(C)=O)C(OC(C)=O)C4OC(C)=O)c(=S)c2C#N)CCC3)cc1 (stereo not drawn)
> 100 µM: HCT-15
inactive: RXF 393 92.3 µM | MDA-N > 100 µM | 786-0 > 100 µM | MOLT-4 > 100 µM | Malme-3M > 100 µM | SK-MEL-2 > 100 µM | SF-268 > 100 µM | TK-10 > 100 µM | HCC 2998 > 100 µM | K562 > 100 µM | U-251 > 100 µM | SW-620 > 100 µM | IGROV-1 > 100 µM | OVCAR-3 > 100 µM | SF-295 > 100 µM | NCI/ADR-RES > 100 µM | SK-OV-3 > 100 µM | UO-31 81.3 µM | SR > 100 µM | HOP-92 6.82 µM | SNB-19 > 100 µM | SK-MEL-5 38.8 µM | BT-549 96.4 µM | RPMI-8226 > 100 µM | LOX IMVI > 100 µM | NCI-H23 > 100 µM | CCRF-CEM > 100 µM | PC-3 > 100 µM | Hs-578T > 100 µM | HCT-116 > 100 µM | SN12C 71.4 µM | UACC-62 > 100 µM | OVCAR-4 > 100 µM | A549 > 100 µM | CAKI-1 > 100 µM | MCF7 > 100 µM | OVCAR-5 > 100 µM | COLO 205 86.9 µM | UACC-257 > 100 µM | M14 > 100 µM | HOP-62 > 100 µM | NCI-H460 > 100 µM | ACHN > 100 µM | HT-29 > 100 µM | SNB-75 > 100 µM | DU-145 > 100 µM | HL-60 > 100 µM | MDA-MB-435 > 100 µM | SF-539 > 100 µM | KM12 > 100 µM | SK-MEL-28 > 100 µM

CCOC(=O)CCC(NC(=O)c1ccc(Nc2nc3ccc(C(F)(F)F)cc3nc2-c2ccccc2)cc1)C(=O)OCC (stereo not drawn)
inactive: RXF 393 49 µM | MDA-N 19.6 µM | 786-0 > 100 µM | MOLT-4 22.1 µM | Malme-3M 23.1 µM | SK-MEL-2 19.1 µM | SF-268 55.6 µM | TK-10 > 100 µM | HCC 2998 28 µM | NCI-H522 22.1 µM | K562 44.2 µM | U-251 > 100 µM | SW-620 > 100 µM | IGROV-1 > 100 µM | OVCAR-3 26.6 µM | SF-295 > 100 µM | NCI/ADR-RES > 100 µM | MDA-MB-231 21.6 µM | UO-31 31.5 µM | SR 33.9 µM | HOP-92 23.9 µM | SNB-19 > 100 µM | SK-MEL-5 30.4 µM | BT-549 > 100 µM | RPMI-8226 > 84.1 µM | LOX IMVI > 42 µM | NCI-H23 97.1 µM | CCRF-CEM 25.8 µM | Hs-578T 24.4 µM | EKVX > 100 µM | HCT-116 > 100 µM | SN12C > 100 µM | UACC-62 17.3 µM | OVCAR-4 34.2 µM | A549 > 100 µM | NCI-H226 > 57.3 µM | CAKI-1 > 100 µM | MCF7 40.8 µM | OVCAR-5 > 92.9 µM | COLO 205 16.2 µM | UACC-257 17.5 µM | M14 19.7 µM | HOP-62 > 100 µM | NCI-H460 56.6 µM | T47D 22.1 µM | ACHN > 73.6 µM | HT-29 > 100 µM | SNB-75 > 100 µM | DU-145 > 100 µM | HL-60 > 63.4 µM | MDA-MB-435 83 µM | SF-539 45.5 µM | KM12 > 94 µM | OVCAR-8 > 100 µM | SK-MEL-28 40.3 µM
> 100 µM: HCT-15
